Measurements as given in patent US10239856B2, “Synthesis of resorcylic acid lactones useful as therapeutic agents” (UNIVERSITY DE STRASBOURG, priority 2008, dated 2019).
Where two headings read alike, the source gives them in different places.

Assays:
HSP90α = HSP90α (Homo sapiens, UniProt P07900); assay: Affinity to HSP90α; format: binding
Her-2 (HSP90 client) = Her-2 (HSP90 client) degradation (client depletion); format: cell-based
Method: A number of the compounds of the invention were tested for affinity to HSP90α (see Kim et al., J. Biomol. Screen., 2004, 9, 375), Her-2 (HSP90 client) degradation (see Xu et al., J. Biol. Chem., 2001, 276, 3702), and cytotoxicity against SKBr3 and HCC1954, two breast cancer cell lines which over express Her-2.

SKBr3 = assay: Cytotoxicity against SKBr3 breast cancer cells; format: cell-based; details: Homo sapiens, SK-BR-3, first value of cell
Method: (§1) Compounds of the invention were assayed for cytotoxicity in HCC1954 and SK-BR-3 tumor cells.

HCC1954 = assay: Cytotoxicity against HCC1954 breast cancer cells; format: cell-based; details: Homo sapiens, second value of cell
Method: as §1

[1] = Her-2 degradation; read-out: Client Depletion
[2] = read-out: Client Depletion; Her-2 degradation

Row | SMILES | IC50 (HSP90α; HSP90 affinity) [nM] | IC50 (Her-2 (HSP90 client); [2]) [nM] | also measured
1 | O=C1OC/C=C/CCCCC(=NOCC(=O)N2CCCCC2)Cc2cc(O)cc(O)c21 [compound 353] |  |  | IC50 (HSP90α; read-out: HSP90 affinity): 3030 nM; IC50 (Her-2 (HSP90 client); [1]): > 10000 nM
2 | O=C1OCC/C=C/CC/C=C/C(=NOCC(=O)N2CCSCC2)Cc2cc(O)cc(O)c21 [compound 384] | 70 | 512 | 
3 | C=C/C1=C\CC/C=C/C(=NOCC(=O)N2CCCCC2)Cc2c(Cl)c(O)cc(O)c2C(=O)OCC1 [compound 397] | 432 | 980 | 
4 | O=C1OCC/C=C/CC/C=C/C(=NOCC(=O)N2CCOCC2)Cc2c(Cl)c(O)cc(O)c21 [13d] |  |  | IC50 (HSP90α; read-out: HSP90 affinity): 220 nM; IC50 (SKBr3): > 10000 nM; IC50 (HCC1954): > 10000 nM; IC50 (Her-2 (HSP90 client); [1]): > 10000 nM
5 | CNC(=O)CON=C1/C=C/CC/C=C/CCOC(=O)c2c(O)cc(O)c(Cl)c2C1 [13i] |  |  | IC50 (HSP90α; read-out: HSP90 affinity): 1200 nM; IC50 (SKBr3): > 10000 nM; IC50 (HCC1954): > 10000 nM
6 | C/C1=C\C(=NOCC(=O)N2CCCCC2)Cc2cc(O)cc(O)c2C(=O)O[C@H](C)C/C=C/CC1 [compound 336] |  |  | IC50 (HSP90α; read-out: HSP90 affinity): < 52 nM
7 | O=C(CON=C1/C=C/CC/C=C/CCOC(=O)c2c(O)cc(O)cc2C1)NCc1ccccc1 [compound 378] | 57 | 929 | 
8 | CCCC1C/C=C/CC/C=C/C(=NOCC(=O)N2CCCCC2)Cc2c(Cl)c(O)cc(O)c2C(=O)O1 (stereo not shown) [compound 394] | 96 | 1580 | 
9 | CCN(CC)C(=O)CON=C1/C=C/CC/C=C/CCOC(=O)c2c(O)cc(O)cc2C1 [compound 357] | 196 | 730 | 
10 | CCCC1C/C=C/CC/C(C)=C/C(=NOCC(=O)N(CC)CC)Cc2cc(O)cc(O)c2C(=O)O1 (stereo not shown) [compound 363] | 900 | > 10000 | 
11 | CC1/C=C/CCCOC(=O)c2c(O)cc(O)cc2CC(=NOCC(=O)N2CCCCC2)/C=C/C1 (stereo not shown) [compound 361] |  |  | IC50 (HSP90α; read-out: HSP90 affinity): 543 nM; IC50 (Her-2 (HSP90 client); [1]): 2960 nM
12 | CC(C)(C)OC(=O)N1CCN(C(=O)CON=C2/C=C/CC/C=C/CCOC(=O)c3c(O)cc(O)cc3C2)CC1 [compound 392] |  |  | IC50 (HSP90α; read-out: HSP90 affinity): 327 nM; IC50 (Her-2 (HSP90 client); [1]): 2870 nM
13 | COC(=O)CON=C1/C=C/CC/C=C/CCOC(=O)c2c(O)cc(O)cc2C1 [compound 385] | 373 | 8160 | 
14 | CCCC1C/C=C/CC/C=C/C(=NOCC(=O)N2CCCCC2)Cc2cc(O)cc(O)c2C(=O)O1 (stereo not shown) [compound 358] | 587 | > 10000 | 
15 | CCCN(CCC)C(=O)CON=C1/C=C/CC/C=C/CCOC(=O)c2c(O)cc(O)cc2C1 [compound 389] | 155 | 454 | 
16 | C/C1=C\C(=NOCC(=O)N2CCCCC2)Cc2cc(O)cc(O)c2C(=O)OCC/C=C/CC1 [compound 349] | 46 | 105 | 
17 | CC1/C=C/COC(=O)c2c(O)cc(O)c(Cl)c2CC(=NOCC(=O)N2CCCCC2)/C=C/C1 (stereo not shown) [compound 368] |  |  | IC50 (HSP90α; read-out: HSP90 affinity): 599 nM; IC50 (Her-2 (HSP90 client); [1]): > 10000 nM
18 | CCCC1C/C=C/CC/C(C)=C/C(=NOCC(=O)N2CCCCC2)Cc2cc(O)cc(O)c2C(=O)O1 (stereo not shown) [compound 350] | 196 | 805 | 
19 | O=C(CON=C1/C=C/CC/C=C/CCOC(=O)c2c(O)cc(O)cc2C1)NC1CCCCC1 [compound 383] | 116 | 708 | 
20 | CC1/C=C/CCOC(=O)c2c(O)cc(O)c(Cl)c2CC(=NOCC(=O)N2CCCCC2)/C=C/C1 (stereo not shown) [compound 366] | 170 | 2040 | 
21 | CCCC1C/C=C/CC/C(C)=C/C(=NOCC(=O)N(CC)CC)Cc2cc(O)cc(O)c2C(=O)O1 (stereo not shown) [compound 362] | 4660 | > 10000 | 
22 | O=C1OCC/C=C/CC/C=C/C(=NOCC(=O)N2CCNCC2)Cc2cc(O)cc(O)c21 [compound 393] | 97 |  | 
23 | CC1CN(C(=O)CON=C2/C=C/CC/C=C/CCOC(=O)c3c(O)cc(O)cc3C2)CC(C)O1 (stereo not shown) [compound 391] | 337 | 2830 | 
24 | O=C1OCCC/C=C/CC/C=C/C(=NOCC(=O)N2CCCCC2)Cc2c(Cl)c(O)cc(O)c21 [compound 396] |  |  | IC50 (HSP90α; read-out: HSP90 affinity): 182 nM; IC50 (Her-2 (HSP90 client); [1]): 3650 nM
25 | CC1CCCN(C(=O)CON=C2/C=C/CC/C=C/CCOC(=O)c3c(O)cc(O)cc3C2)C1 (stereo not shown) [compound 373] | 59 | 89 | 
26 | CCN(CC)C(=O)CON=C1/C=C(\C)CC/C=C/C[C@@H](C)OC(=O)c2c(O)cc(O)cc2C1 [compound 351] | 204 | 900 | 

Row | SMILES | IC50 (HSP90α; HSP90 affinity) [nM] | IC50 (Her-2 (HSP90 client); [2]) [nM] | also measured
27 | CC(C)N(C(=O)CON=C1/C=C/CC/C=C/CCOC(=O)c2c(O)cc(O)cc2C1)C(C)C [compound 379] | 162 | 627 | 
28 | O=C1OCC/C=C/CC/C=C/C(=NOCC(=O)N2CC=CC2)Cc2cc(O)cc(O)c21 [compound 386] | 128 | 669 | 
29 | CC(C)CN(CC(C)C)C(=O)CON=C1/C=C/CC/C=C/CCOC(=O)c2c(O)cc(O)cc2C1 [compound 390] | 94 | 549 | 
30 | CC1CCCC(C)N1C(=O)CON=C1/C=C/CC/C=C/CCOC(=O)c2c(O)cc(O)cc2C1 (stereo not shown) [compound 374] | 238 | 2030 | 
31 | CC1C=CC(C)N1C(=O)CON=C1/C=C/CC/C=C/CCOC(=O)c2c(O)cc(O)cc2C1 (stereo not shown) [compound 387] | 118 | 568 | 
32 | CC1CCN(C(=O)CON=C2/C=C/CC/C=C/CCOC(=O)c3c(O)cc(O)cc3C2)CC1 [compound 375] | 70 | 201 | 
33 | C[C@@H]1C[C@H]2O[C@@H]2/C=C\C=C\C(=O)Cc2c(Cl)c(O)cc(O)c2C(=O)O1 [radicicol, reference compound] |  | 450 | 
34 | O=C1OCC/C=C/CC/C=C/C(=NOCC(=O)N(Cc2ccccc2)Cc2ccccc2)Cc2cc(O)cc(O)c21 [compound 381] | 2990 | > 10000 | 
35 | O=C1OCC/C=C/CC/C=C/C(=NOCC(=O)N2CCC(c3ccccc3)CC2)Cc2cc(O)cc(O)c21 [compound 376] | 2240 | > 10000 | 
36 | C[C@@H]1C/C=C/CC/C=C/C(=O)Cc2c(Cl)c(O)cc(O)c2C(=O)O1 [pochonin D, Pochonin D, reference compound] |  |  | IC50 (HSP90α; read-out: HSP90 affinity): 360 nM; IC50 (Her-2 (HSP90 client); [1]): 3500 nM
37 | O=C1OCC/C=C/CC/C=C/C(=NOCC(=O)N2CCOCC2)Cc2cc(O)cc(O)c21 [compound 380] | 124 | 588 | 
38 | CC1/C=C/C[C@@H](C)OC(=O)c2c(O)cc(O)c(Cl)c2CC(=NOCC(=O)N2CCCCC2)/C=C/C1 (stereo partly shown) [compound 369] | 154 | 677 | 
39 | O=C1OCC/C=C/CC/C=C/C(=NOCC(=O)N2CC=CCC2)Cc2cc(O)cc(O)c21 [compound 382] | 22 | 122 | 
40 | CCCC1C/C=C/CCCCC(=NOCC(=O)N2CCCCC2)Cc2cc(O)cc(O)c2C(=O)O1 (stereo not shown) [compound 359] | 1940 | > 8800 | 
41 | CC1/C=C/CCCOC(=O)c2c(O)cc(O)c(Cl)c2CC(=NOCC(=O)N2CCCCC2)/C=C/C1 (stereo not shown) [compound 367] | 1720 | > 10000 | 
42 | CCCC1C/C=C/C(C)C/C=C/C(=NOCC(=O)N2CCCCC2)Cc2c(Cl)c(O)cc(O)c2C(=O)O1 (stereo not shown) [compound 365] | 1750 | 8970 | 
43 | CC1/C=C/CCOC(=O)c2c(O)cc(O)cc2CC(=NOCC(=O)N2CCCCC2)/C=C/C1 (stereo not shown) [compound 370] | 38 | 97 | 
44 | CCC1CCCCN1C(=O)CON=C1/C=C/CC/C=C/CCOC(=O)c2c(O)cc(O)cc2C1 (stereo not shown) [compound 371] | 243 | 629 | 
45 | O=C1OCC/C=C/CCCCC(=NOCC(=O)N2CCCCC2)Cc2c(Cl)c(O)cc(O)c21 [compound 356] |  |  | IC50 (HSP90α; read-out: HSP90 affinity): 511 nM; IC50 (Her-2 (HSP90 client); [1]): 9480 nM
46 | CC1CCCCN1C(=O)CON=C1/C=C/CC/C=C/CCOC(=O)c2c(O)cc(O)cc2C1 (stereo not shown) [compound 372] | 886 | 3070 | 
47 | O=C1NCC/C=C/CC/C=C/C(=NOCC(=O)N2CCCCC2)Cc2c(Cl)c(O)cc(O)c21 [compound 395] | 97 | 754 | 
48 | C[C@@H]1C/C=C/[C@@H](O)C/C=C/C(=N/OCC(=O)N2CCCCC2)Cc2cc(O)cc(O)c2C(=O)O1 [compound 457] | 12 |  | 
49 | O=C1OCC/C=C/CC/C=C/C(=NOCC(=O)N2CCC(Cc3ccccc3)CC2)Cc2cc(O)cc(O)c21 [compound 377] | 5760 | > 10000 | 
50 | O=C1OCC/C=C/CC/C=C/C(=NOCC(=O)N2CCCC2)Cc2cc(O)cc(O)c21 [compound 388] | 219 | 509 | 
51 | O=C1OCC/C=C/CCCCC(=NOCC(=O)N2CCCCC2)Cc2c(Cl)c(O)cc(O)c21 [13g] |  |  | IC50 (HSP90α; read-out: HSP90 affinity): 81 nM
